Test results reported in patent US20190010167A1, “INHIBITORS OF THE MENIN-MLL INTERACTION” (Vitae Pharmaceuticals, Inc., priority 2015, published 2019).

These compounds were tested against T1, wild-type menin / MLL-AF9 fusion protein (Homo sapiens, UniProt O00255) (assay: AlphaLISA menin/MLL binding assay, wild-type menin (Assay 1)). Settings: biotinylated wild-type menin 5 nM, MLL-AF9-FLAG lysate.
T1 construct: made in house; host or cells: E. coli (menin); HEK293 cleared lysate (MLL-AF9-FLAG)
T1 sequence (O00255 1-610): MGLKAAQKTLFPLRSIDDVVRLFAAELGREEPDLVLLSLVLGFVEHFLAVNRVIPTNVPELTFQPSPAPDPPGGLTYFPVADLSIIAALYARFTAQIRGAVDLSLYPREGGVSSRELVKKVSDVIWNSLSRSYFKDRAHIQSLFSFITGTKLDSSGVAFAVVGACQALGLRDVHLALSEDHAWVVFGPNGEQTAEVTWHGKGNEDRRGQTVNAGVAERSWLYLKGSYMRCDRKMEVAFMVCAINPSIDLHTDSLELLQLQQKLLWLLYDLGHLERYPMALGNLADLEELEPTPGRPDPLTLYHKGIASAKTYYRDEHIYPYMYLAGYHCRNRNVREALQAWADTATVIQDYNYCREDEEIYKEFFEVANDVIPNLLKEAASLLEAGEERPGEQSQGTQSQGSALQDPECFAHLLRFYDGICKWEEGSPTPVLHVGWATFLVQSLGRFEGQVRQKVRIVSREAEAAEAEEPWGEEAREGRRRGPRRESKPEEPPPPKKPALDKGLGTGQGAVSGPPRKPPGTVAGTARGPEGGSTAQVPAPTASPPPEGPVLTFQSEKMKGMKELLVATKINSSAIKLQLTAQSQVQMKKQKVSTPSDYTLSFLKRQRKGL
Protocol: Potencies of inhibitor compounds against menin/MLL binding were assessed by AlphaLISA assay using biotinylated (1) wild-type menin or (2) mutated menin (described in Nature (2012) Vol. 482, pp. 542-548) and MLL-AF9 fusion protein bearing a FLAG epitope at its C-terminus. Menin proteins were expressed in E. coli and covalently modified with biotin using EZ-Link™ Sulfo-NHS-Biotin (ThermoFisher Cat. No. 21217) according to manufacturer's protocol. MLL1-1,396 fused to AF91-92 and the C-terminal FLAG peptide was expressed in HEK293 cells and used as a lysate cleared at 21,000×g for 10 min.
Compounds (2 μL of solutions in DMSO) were dispensed in white 96-well half-area plates (Corning Cat. No. 3693) and incubated for 30 min at RT with 5 nM biotinylated menin and appropriate amount of MLL-AF9-FLAG lysate in 40 μL of 50 mM Tris-HCl buffer pH 7.4 containing 5% (v/v) DMSO, 50 mM NaCl, 0.01% (w/v) bovine serum albumin (BSA) and 1 mM DTT. To this incubation mixture, 40 μl of AlphaLISA anti-FLAG acceptor (PerkinElmer Cat. No. AL112C) and streptavidin donor (PerkinElmer Cat. No. 6760002) beads (10 μg/mL each) was added and incubation continued at RT for 60 min. Alpha (amplified luminescent proximity homogeneous assay) signal was measured on an Envision multi-label plate reader at the end of the incubation. All steps were conducted under dim fluorescent light.
These percent inhibition values were regressed against compound concentrations in the assay using four parameter logit non-linear curve fitting (XLFit, IDBS). The IC50 values were derived from the curve fitting as inflection points on the dose-response curves and are set out in Table 1 below.

| IC50 | SMILES |
| --- | --- |
| < 100 nM | Cc1c(CN2CCC3(CCN(c4ncnc5sc(CC(F)(F)F)cc45)C3)C2)ccc2[nH]c(C#N)cc12 (single isomer, unassigned) [Example 30b, 4-methyl-5-((7-(6-(2,2,2-trifluoroethyl)thieno[2,3-d]pyrimidin-4-yl)-2,7-diazaspiro[4.4]nonan-2-yl)methyl)-1H-indole-2-carbonitrile] |
| 100 to 1000 nM | Cc1c(CN2CC[C@@]3(CCN(c4ccnc5ccc(CC(F)(F)F)cc45)C3)C2)ccc2[nH]c(C#N)cc12 (single isomer, unassigned) [Example 86a, 4-methyl-5-((7-(6-(2,2,2-trifluoroethyl)quinolin-4-yl)-2,7-diazaspiro[4.4]nonan-2-yl)methyl)-1H-indole-2-carbonitrile] |
| 100 to 1000 nM | Cc1c(CN2CC[C@@]3(CCN(c4ccnc5ccc(CC(F)(F)F)cc45)C3)C2)ccc2[nH]c(C#N)cc12 (single isomer, unassigned) [Example 86b, 4-methyl-5-((7-(6-(2,2,2-trifluoroethyl)quinolin-4-yl)-2,7-diazaspiro[4.4]nonan-2-yl)methyl)-1H-indole-2-carbonitrile] |
| ≥ 1000 nM | CC(C)N1CC2(CCN(c3ncnc4sc(CC(F)(F)F)cc34)CC2)C1 [Example 3, 4-(2-isopropyl-2,7-diazaspiro[3.5]nonan-7-yl)-6-(2,2,2-trifluoroethyl)thieno[2,3-d]pyrimidine] |
| ≥ 1000 nM | FC(F)(F)Cc1cc2c(N3CCC4(CC3)CN(CC3CCCO3)C4)ncnc2s1 (stereo not shown) [Example 4, 4-(2-((tetrahydrofuran-2-yl)methyl)-2,7-diazaspiro[3.5]nonan-7-yl)-6-(2,2,2-trifluoroethyl)thieno[2,3-d]pyrimidine] |
| 100 to 1000 nM | FC(F)(F)Cc1cc2c(N3CCC4(CC3)CN(CC3CCOC3)C4)ncnc2s1 (stereo not shown) [Example 5, 4-(2-((tetrahydrofuran-3-yl)methyl)-2,7-diazaspiro[3.5]nonan-7-yl)-6-(2,2,2-trifluoroethyl)thieno[2,3-d]pyrimidine] |
| ≥ 1000 nM | FC(F)(F)Cc1cc2c(N3CCC4(CC3)CN(CC3CCCCO3)C4)ncnc2s1 (stereo not shown) [Example 6, 4-(2-((tetrahydro-2H-pyran-2-yl)methyl)-2,7-diazaspiro[3.5]nonan-7-yl)-6-(2,2,2-trifluoroethyl)thieno[2,3-d]pyrimidine] |
| ≥ 1000 nM | FC(F)(F)Cc1cc2c(N3CCC4(CC3)CN(CC3CCCOC3)C4)ncnc2s1 (stereo not shown) [Example 7, 4-(2-((tetrahydro-2H-pyran-3-yl)methyl)-2,7-diazaspiro[3.5]nonan-7-yl)-6-(2,2,2-trifluoroethyl)thieno[2,3-d]pyrimidine] |
| ≥ 1000 nM | FC(F)(F)Cc1cc2c(N3CCC4(CC3)CN(C3CCOCC3)C4)ncnc2s1 [Example 8, 4-(2-(tetrahydro-2H-pyran-4-yl)-2,7-diazaspiro[3.5]nonan-7-yl)-6-(2,2,2-trifluoroethyl)thieno[2,3-d]pyrimidine] |
| 100 to 1000 nM | FC(F)(F)Cc1cc2c(N3CCC4(CC3)CN(C3CCCCC3)C4)ncnc2s1 [Example 9, 4-(2-cyclohexyl-2,7-diazaspiro[3.5]nonan-7-yl)-6-(2,2,2-trifluoroethyl)thieno[2,3-d]pyrimidine] |
| 100 to 1000 nM | FC(F)(F)Cc1cc2c(N3CCC4(CC3)CN(CC3CCCC(F)(F)C3)C4)ncnc2s1 (stereo not shown) [Example 11, 4-(2-((3,3-difluorocyclohexyl)methyl)-2,7-diazaspiro[3.5]nonan-7-yl)-6-(2,2,2-trifluoroethyl)thieno[2,3-d]pyrimidine] |
| 100 to 1000 nM | FC(F)(F)Cc1cc2c(N3CCC4(CC3)CN(CC3CCC(F)(F)CC3)C4)ncnc2s1 [Example 12, 4-(2((4,4-difluorocyclohexyl)methyl)-2,7-diazaspiro[3.5]nonan-7-yl)-6-(2,2,2-trifluoroethyl)thieno[2,3-d]pyrimidine] |
| ≥ 1000 nM | COC1CC(CN2CC3(CCN(c4ncnc5sc(CC(F)(F)F)cc45)CC3)C2)C1 (stereo not shown) [Example 13] |
